Results published in US20090123391A1, “Novel Formulations” (3M INNOVATIVE PROPERTIES COMPANY, priority 2006, published 2009).

Key:
[1] = Dose Through Unit (DTU) dose uniformity of MDI; format: physicochemical; settings: for overall mean dose of medicament delivered through the actuator, combining beginning and end of use doses: MDI, Compound A 22.5 μg; for overall mean dose of medicament delivered through the actuator, combining beginning and end of use doses / overall mean dose delivered through the actuator, combined beginning and end of use: HFA 134a; for overall mean dose delivered through the actuator, combined beginning and end of use: Example 5: Compound E in combination with Compound A, MDI 100/50 μg/act, target output Compound E 90 μg, Compound A 45 μg; for overall mean dose delivered through the actuator, combining beginning and end of use: Example 4: Compound A in combination with Compound D, HFA-134a MDI 100/100 μg/act, target output compound D 90 μg, compound A 90 μg
Description: The dose collection apparatus (500 ml separatory funnel with a cotton plug) was assembled and the flow rate was set to 20 L/min. Test units were stored at ambient conditions for two weeks after manufacture prior to DTU testing. For the testing at the beginning of the unit, the MDIs were primed two times with a priming actuator and four times to waste with the test actuator, shaking the units between each actuation. Two test actuations were collected in the dose collection apparatus, shaking the unit between actuations. The collection apparatus was rinsed with an appropriate volume of diluent, and the rinsate with the collected dose was analyzed by conventional HPLC analysis. For end of unit testing, the MDIs were actuated an additional 48 times to waste, shaking between each actuation. The MDIs were then actuated four times to waste through a new test actuator. Two test actuations were then collected in the dose collection apparatus, shaking the unit between actuations. The collection apparatus was rinsed with an appropriate volume of diluent, and the rinsate with the collected dose was analyzed by conventional HPLC analysis.
The reported results are the average of ten units at both the beginning and end of unit use.

[2] = Andersen Cascade Impactor (ACI) fine particle fraction of MDI; format: physicochemical; settings: for Fine Particle Fraction (FPF) expressed as a percentage of the total dose target, for Compound C, 12.5 μg and for Compound A, 25 μg: Example 3: Compound A in combination with Compound C, 25/12.5 μg/act; for Fine Particle Fraction (FPF) expressed as a percentage of the total dose target, for Compound C, 12.5 μg and for Compound A, 25 μg / Fine Particle Fraction expressed as a percentage of the total dose target, for Compound B, 10 μg and for the Compound A, 25 μg: MDI; for Fine Particle Fraction (FPF) expressed as a percentage of the total dose target, for Compound C, 12.5 μg and for Compound A, 25 μg / Fine Particle Fraction (FPF) expressed as percentage of the total dose target of Compound E, 100 μg and for Compound A, 50 μg / Fine Particle Fraction expressed as a percentage of the total dose target, for Compound B, 10 μg and for the Compound A, 25 μg: HFA 134a; for Fine Particle Fraction (FPF) expressed as percentage of the total dose target of Compound E, 100 μg and for Compound A, 50 μg: Example 5: Compound E in combination with Compound A, MDI 100/50 μg/act; for Fine Particle Fraction (FPF) expressed as a percentage of the total dose target, for Compound D, 100 μg, and for Compound A, 100 μg: Example 4: Compound A in combination with Compound D, HFA-134a MDI 100/100 μg/act; for Fine Particle Fraction expressed as a percentage of the total dose target, for Compound B, 10 μg and for the Compound A, 25 μg: Example 2: Compound A in combination with Compound B
Description: The fine particle fraction of the aerosol formulations according to the invention may be measured by conventional techniques, for example, by cascade impaction by measuring particle size distribution. The Cascade Impactor is designed to mimic the human buccal cavity and bronchial tract and the cascade Impactor test is designed to reveal the amount of deposition of inhaled drug substance at various stages thereof. As used herein reference to the “cascade impaction” assay means determination of the deposition of the emitted dose in pressurised inhalations as defined in European Pharmacopoeia, Section 2.9.18, 5th edition “Preparations for Inhalation, Apparatus D”. Such techniques enable the “respirable fraction” of the aerosol formulations to be calculated. One method used to calculate the “respirable fraction” is by reference to “fine particle fraction” which is the amount of active ingredient collected in stages 3 to 5 (aerodynamic diameter 1.1-4.7 μm) which represents the lung, per actuation expressed as a percentage of the total amount of active ingredient delivered per actuation using the cascade impactor method described above. Earlier stages represent the aerosol device itself, the throat and the upper reaches of the bronchial tract, and the later stages representing potential systemic absorption through the wall of the lung which may cause serious side effects.
The Andersen Cascade Impactor Mark II (ACI) was assembled and the flow rate was set to 28.3 L/min. The units were primed four times with the test actuator prior to dose collection, shaking between actuations. Between 5 and 20 actuations were collected in the ACI assembly. The ACI was disassembled and the components were rinsed with an appropriate amount of solvent that ensures dissolution of all formulation ingredients. The rinsate was collected for analysis by conventional HPLC analysis.

[3] = 0.1% w/w of polymer of formula (II), 12 Week at 40° C./75% relative humidity
[4] = 0.1% w/w of polymer of formula (II), Initial

In the case of `NS(=O)(=O)c1cccc(CCCCOCCCCCCNC[C@H](O)c2ccc(O)c(CO)c2)c1` [Compound C, 3-(4-{[6-({(2R)-2-hydroxy-2-[4-hydroxy-3-(hydroxymethyl)-phenyl]ethyl}amino)hexyl]oxy}butyl)benzenesulfonamide], the “overall mean dose of medicament delivered through the actuator, combining beginning and end of use doses” value (“overall mean dose … of use doses” below) ([1]; Example 3: Compound A in combination with Compound C, 25/12.5 μg/act, 0.1% w/w polymer of formula (II), 12 Week at 40° C./75 relative humidity, target output Compound C 11.3 μg) is reported as 112%, the “overall mean dose … of use doses” value ([1]; Example 3: Compound A in combination with Compound C, 25/12.5 μg/act, 0.1% w/w polymer of formula (II), Initial, target output Compound C 11.3 μg) is reported as 96% and the “overall mean dose … of use doses” value ([1]; Example 3: Compound A in combination with Compound C, 25/12.5 μg/act, surfactant-free, 12 Week at 40° C./75 relative humidity, target output Compound C 11.3 μg) is reported as 90%. The “overall mean dose … of use doses” value ([1]; Example 3: Compound A in combination with Compound C, 25/12.5 μg/act, surfactant-free, Initial, target output Compound C 11.3 μg) was 80%, the “Fine Particle Fraction (FPF) expressed as a percentage of the total dose target, for Compound C, 12.5 μg and for Compound A, 25 μg” value ([2]; 0.1% w/w polymer of formula (II), 12 Week 40° C./75 relative humidity) was 25% and the “Fine Particle Fraction (FPF) expressed as a percentage of the total dose target, for Compound C, 12.5 μg and for Compound A, 25 μg” value ([2]; 0.1% w/w polymer of formula (II), Initial) was 28%. The “Fine Particle Fraction (FPF) expressed as a percentage of the total dose target, for Compound C, 12.5 μg and for Compound A, 25 μg” value ([2]; surfactant-free, 12 Week 40° C./75 relative humidity) was 21% and the “Fine Particle Fraction (FPF) expressed as a percentage of the total dose target, for Compound C, 12.5 μg and for Compound A, 25 μg” value ([2]; surfactant-free, Initial) was 14%.
For `COc1ccc(Nc2ccc(CCNCC(O)c3ccc(O)c4[nH]c(=O)ccc34)cc2)cc1-c1ccccc1` (stereo not drawn) [Compound E, N-{2-[4-(3-phenyl-4-methoxyphenyl)aminophenyl]ethyl}-2-hydroxy-2-(8-hydroxy-2(1H)-quinolinon-5-yl)ethylamine], the “overall mean dose delivered through the actuator, combined beginning and end of use” value [1, 3] was 106%, the “overall mean dose delivered through the actuator, combined beginning and end of use” value [1, 4] was 104% and the “Fine Particle Fraction (FPF) expressed as percentage of the total dose target of Compound E, 100 μg and for Compound A, 50 μg” value [2, 3] was 28%. The “Fine Particle Fraction (FPF) expressed as percentage of the total dose target of Compound E, 100 μg and for Compound A, 50 μg” value [2, 4] was 26%.
In the case of `OCc1cc([C@@H](O)CNCCCCCCOCCOCc2c(Cl)cccc2Cl)ccc1O` [Compound D, 4-{(1R)-2-[(6-{2-[(2,6-dichlorobenzyl)oxy]ethoxy}hexyl)amino]-1-hydroxyethyl}-2-(hydroxymethyl) phenol], the “overall mean dose delivered through the actuator, combining beginning and end of use” value [1, 3] is reported as 104%, the “overall mean dose delivered through the actuator, combining beginning and end of use” value [1, 4] is reported as 101% and the “Fine Particle Fraction (FPF) expressed as a percentage of the total dose target, for Compound D, 100 μg, and for Compound A, 100 μg” value [2, 3] is reported as 27%. The “Fine Particle Fraction (FPF) expressed as a percentage of the total dose target, for Compound D, 100 μg, and for Compound A, 100 μg” value [2, 4] was 32%.
With `O=CNc1cc([C@@H](O)CNCCc2ccc(NC[C@H](O)c3ccccc3)cc2)ccc1O` [Compound B] the “overall mean dose … of use doses” value ([1]; Example 2: Compound A in combination with Compound B, 25/10 μg/act, 0.1% w/w of polymer of formula (II), 12 Week at 40° C./75% relative humidity, target output Compound B 8.5 μg) was 99%, the “overall mean dose … of use doses” value ([1]; Example 2: Compound A in combination with Compound B, 25/10 μg/act, 0.1% w/w of polymer of formula (II), Initial, target output Compound B 8.5 μg) was 98% and the “overall mean dose … of use doses” value ([1]; Example 2: Compound A in combination with Compound B, 25/10 μg/act, surfactant-free, 12 Week at 40° C./75% relative humidity, target output Compound B 8.5 μg) was 73%. The “overall mean dose … of use doses” value ([1]; Example 2: Compound A in combination with Compound B, 25/10 μg/act, surfactant-free, Initial, target output Compound B 8.5 μg) was 71%, the “Fine Particle Fraction expressed as a percentage of the total dose target, for Compound B, 10 μg and for the Compound A, 25 μg” value [2, 3] was 26% and the “Fine Particle Fraction expressed as a percentage of the total dose target, for Compound B, 10 μg and for the Compound A, 25 μg” value [2, 4] was 25%. The “Fine Particle Fraction expressed as a percentage of the total dose target, for Compound B, 10 μg and for the Compound A, 25 μg” value ([2]; surfactant-free, 12 Week at 40° C./75% relative humidity) was 21% and the “Fine Particle Fraction expressed as a percentage of the total dose target, for Compound B, 10 μg and for the Compound A, 25 μg” value ([2]; surfactant-free, Initial) was 20%.
